Common to all, as to assay type: biochemical
One assay deals with PKC theta kinase (Homo sapiens, UniProt Q04759). The assay is described as follows: PKC Theta I (coupled enzyme assay, absorbance at 340 nm). The conditions noted are these: 240 μM ATP, 18 nM PKC theta, absorbance read out. How it is done: An assay buffer solution was prepared which consisted of 100 mM HEPES (pH 7.5), 10 mM MgCl2, 25 mM NaCl, 0.1 mM EDTA and 0.01% Brij. […] To 60 μL of this enzyme buffer, in a 384 well plate, was added 2 μL of VRT stock solution in DMSO. The mixture was allowed to equilibrate for 10 mins at 30° C. […] Ki values were calculated from initial rate data by non-linear regression using the Prism software package (Prism 4.0a, Graphpad Software, San Diego, Calif.).
Sequence of PKC theta kinase (Q04759 whole entry): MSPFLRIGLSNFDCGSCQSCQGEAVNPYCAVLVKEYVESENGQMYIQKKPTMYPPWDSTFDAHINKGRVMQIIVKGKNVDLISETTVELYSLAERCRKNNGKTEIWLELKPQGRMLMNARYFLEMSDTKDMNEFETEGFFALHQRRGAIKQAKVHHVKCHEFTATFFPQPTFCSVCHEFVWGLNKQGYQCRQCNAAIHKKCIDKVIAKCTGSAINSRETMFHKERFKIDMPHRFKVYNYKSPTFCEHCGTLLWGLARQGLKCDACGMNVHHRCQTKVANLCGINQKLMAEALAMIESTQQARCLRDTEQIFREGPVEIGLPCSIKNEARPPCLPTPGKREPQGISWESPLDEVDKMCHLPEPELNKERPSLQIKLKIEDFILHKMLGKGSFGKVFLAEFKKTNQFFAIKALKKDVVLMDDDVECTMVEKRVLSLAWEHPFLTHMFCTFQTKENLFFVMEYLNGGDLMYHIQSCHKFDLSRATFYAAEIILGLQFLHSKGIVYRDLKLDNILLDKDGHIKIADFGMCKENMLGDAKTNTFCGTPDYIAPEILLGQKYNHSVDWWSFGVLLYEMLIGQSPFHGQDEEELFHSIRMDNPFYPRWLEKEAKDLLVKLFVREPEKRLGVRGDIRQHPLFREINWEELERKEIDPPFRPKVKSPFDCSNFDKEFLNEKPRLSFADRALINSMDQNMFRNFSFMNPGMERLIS

The target of another assay is PKC delta kinase (Homo sapiens, UniProt Q05655). As to the kind of experiment: PKC Delta (coupled enzyme assay). The following applies: 150 μM ATP, 46 nM PKC delta; read-out: Ki PKC delta. How it is done:
An assay buffer solution was prepared which consisted of 100 mM HEPES (pH 7.5), 10 mM MgCl2, 25 mM NaCl, 0.1 mM EDTA and 0.01% Brij. […] To 16 μL of this enzyme buffer, in a 384 well plate, was added 1 μL of VRT stock solution in DMSO. The mixture was allowed to equilibrate for 10 mins at 30° C. […] Ki values were calculated from initial rate data by non-linear regression using the Prism software package (Prism 4.0a, Graphpad Software, San Diego, Calif.).

Another assay addresses PKC alpha kinase (Homo sapiens, UniProt P17252). The assay is described as follows: PKC Alpha (coupled enzyme assay). The following applies: 130 μM ATP, 4.5 nM PKC alpha. How it is done:
An assay buffer solution was prepared which consisted of 100 mM HEPES (pH 7.5), 10 mM MgCl2, 25 mM NaCl, 0.1 mM EDTA, 100 μM CaCl2 and 0.01% Brij. […] To 16 μL of this enzyme buffer, in a 384 well plate, was added 1 μL of VRT stock solution in DMSO. The mixture was allowed to equilibrate for 10 mins at 30° C. […] Ki values were calculated from initial rate data by non-linear regression using the Prism software package (Prism 4.0a, Graphpad Software, San Diego, Calif.).

Sequence of PKC delta kinase (Q05655 whole entry): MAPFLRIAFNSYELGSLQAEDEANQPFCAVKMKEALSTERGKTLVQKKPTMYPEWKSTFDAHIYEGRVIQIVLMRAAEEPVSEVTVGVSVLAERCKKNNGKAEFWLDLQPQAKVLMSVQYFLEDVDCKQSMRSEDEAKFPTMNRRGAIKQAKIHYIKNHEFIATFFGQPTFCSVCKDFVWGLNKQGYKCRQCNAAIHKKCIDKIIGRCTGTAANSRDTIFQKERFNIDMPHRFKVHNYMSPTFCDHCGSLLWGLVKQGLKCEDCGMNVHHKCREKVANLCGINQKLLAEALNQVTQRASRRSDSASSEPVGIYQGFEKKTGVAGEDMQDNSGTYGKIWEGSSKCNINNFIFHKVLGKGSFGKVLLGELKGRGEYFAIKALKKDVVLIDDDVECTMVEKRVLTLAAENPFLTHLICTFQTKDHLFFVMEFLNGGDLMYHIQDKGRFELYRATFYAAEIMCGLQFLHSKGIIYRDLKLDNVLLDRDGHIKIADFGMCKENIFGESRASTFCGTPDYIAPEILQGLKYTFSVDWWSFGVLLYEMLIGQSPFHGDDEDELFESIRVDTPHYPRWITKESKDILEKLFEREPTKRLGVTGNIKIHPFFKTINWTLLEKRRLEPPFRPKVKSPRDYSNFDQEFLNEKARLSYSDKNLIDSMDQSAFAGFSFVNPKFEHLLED

`CC(C)(C)OC(=O)N1CCCN(c2nccc(C(=O)c3cccnc3N)n2)CC1` [compound 110] registered a Ki at PKC theta kinase of 500 to 2800 nM. Regarding `Nc1ncc(Br)cc1C(=O)c1cccc(N2CCCN(CCc3ccccc3)CC2)n1` [compound 114], the Ki at PKC theta kinase is 500 to 2800 nM.

For `CC(C)(C)N1CCN(c2cccc(C(=O)c3cccnc3N)n2)CC1` [compound 88], the Ki on PKC theta kinase fell in the range of 500 to 2800 nM. With `Cc1ccc(-c2ccc(N3CCNCC3)nc2C(=O)c2cccnc2N)o1` [compound 470], the Ki on PKC delta kinase is 50 to 500 nM; on PKC alpha kinase it was over 2800 nM. As for `NCC1CCC(CNc2ccc(C(F)(F)F)c(C(=O)c3cccnc3N)n2)CC1` (stereo not drawn) [compound 451], the Ki at PKC delta kinase and on PKC alpha kinase was over 2800 nM throughout. Consider `CC(C)(C)OC(=O)NC1CCN(c2cccc(C(=O)c3cc(Br)cnc3N)n2)CC1` [compound 135], for which, at PKC theta kinase, the Ki was 500 to 2800 nM. Same read-out and setting: to `CC(C)(C)C(=O)N1CCCN(c2cccc(C(=O)c3cc(Br)cnc3N)n2)CC1` [compound 73] belongs 500 to 2800 nM. With `CC(C)(C)[C@H](N)COc1ccc(C(F)(F)F)c(C(=O)c2cccnc2N)n1` [compound 422], the Ki on PKC delta kinase is 500 to 2800 nM; on PKC alpha kinase it was over 2800 nM. Consider `Nc1ncccc1C(=O)c1nc(NCC2CCC(N)CC2)ccc1C(F)(F)F` (stereo not drawn) [compound 460], for which the Ki at PKC delta kinase was 500 to 2800 nM; at PKC alpha kinase it was over 2800 nM.

`N#CCC(=O)N1CCCN(c2cccc(C(=O)c3cccnc3N)n2)CC1` [compound 22] returned a Ki on PKC theta kinase of 500 to 2800 nM. `CC(C)(C)CC(=O)N1CCCN(c2cccc(C(=O)c3cccnc3N)n2)CC1` [compound 26] gave a Ki on PKC theta kinase of 500 to 2800 nM. As for `Cc1ccc(-c2ccc(N3CCNC(c4ccccc4)C3)nc2C(=O)c2cccnc2N)o1` (stereo not drawn) [compound 469], the values for the Ki at PKC delta kinase and at PKC alpha kinase were 50 to 500 nM and 500 to 2800 nM, respectively. On PKC theta kinase, `Cc1ccsc1CN1CCCN(c2cccc(C(=O)c3cc(Br)cnc3N)n2)CC1` [compound 139] displayed a Ki of 500 to 2800 nM. With `Nc1ncccc1C(=O)c1nc(N2CCNC(CC(F)(F)F)C2)ccc1C(F)(F)F` (stereo not drawn) [compound 491], the Ki is 500 to 2800 nM at PKC delta kinase and over 2800 nM at PKC alpha kinase.

As to `Nc1ncc(Br)cc1C(=O)c1cccc(N2CCCN(C(=O)Cc3ccccc3)CC2)n1` [compound 72], on PKC theta kinase, the Ki lay in the range of 500 to 2800 nM. For `CC(C)(CN)CNc1ccc(C(F)(F)F)c(C(=O)c2cccnc2N)n1` [compound 425], the Ki fell in the range of 50 to 500 nM on PKC delta kinase and 500 to 2800 nM on PKC alpha kinase. In the same order, the values of `Nc1ncccc1C(=O)c1nc(N2CCN[C@H](c3ccccc3)C2)ccc1C(F)(F)F` [compound 447] are 500 to 2800 nM and 500 to 2800 nM. `CN1CCC(N2CCN(c3cccc(C(=O)c4cc(Br)cnc4N)n3)CC2)CC1` [compound 101] showed a Ki at PKC theta kinase of 500 to 2800 nM. Take `CC#Cc1ccc(N2CCN[C@H](c3ccccc3)C2)nc1C(=O)c1cccnc1N` [compound 465]: the Ki is 50 to 500 nM at PKC delta kinase and 500 to 2800 nM at PKC alpha kinase. In the case of `C=Cc1ccc(N2CCN[C@H](c3ccccc3)C2)nc1C(=O)c1cccnc1N` [compound 445], the Ki at PKC delta kinase and on PKC alpha kinase was 500 to 2800 nM each time. As to `NCC1CCCC(CNc2ccc(C(F)(F)F)c(C(=O)c3cccnc3N)n2)C1` (stereo not drawn) [compound 429], the values for the Ki at PKC delta kinase and on PKC alpha kinase were 50 to 500 nM and over 2800 nM, respectively. Turning to `CC(C)(C)C1CN(c2ccc(C(F)(F)F)c(C(=O)c3cccnc3N)n2)CCN1` (stereo not drawn) [compound 456], the Ki on PKC delta kinase and at PKC alpha kinase was over 2800 nM each time. With `C=C(F)c1ccc(N2CCN[C@@H](CC(C)(C)F)C2)nc1C(=O)c1cccnc1N` [compound 506], the Ki on PKC delta kinase fell in the range of 50 to 500 nM; on PKC alpha kinase it was 500 to 2800 nM.

For the compound `Nc1ncccc1C(=O)c1nc(N2CCNC(C(F)(F)F)C2)ccc1C(F)(F)F` (stereo not drawn) [compound 477], the Ki at PKC delta kinase is 50 to 500 nM; on PKC alpha kinase, over 2800 nM.

For the compound `Cc1ccc(N2CCCNCC2)nc1C(=O)c1cccnc1N` [compound 209], the Ki on PKC delta kinase and at PKC alpha kinase was 500 to 2800 nM throughout.

Regarding `CC(C)(F)CC1CN(c2ccc(C(F)(F)F)c(C(=O)c3cccnc3N)n2)CCN1` (stereo not drawn) [compound 464], the values for the Ki on PKC delta kinase and at PKC alpha kinase were 50 to 500 nM and 500 to 2800 nM, respectively.

These data come from patent US8741931B2, “Kinase inhibitors” (priority 2007, dated 2014).
